Measured values reported in the METLIN SMRT retention time set (Domingo-Almenara et al. 2019).

Experiment: gradient 5% acetonitrile 3 min, to 50% in 2 min, to 85% in 15 min, held 3 min, 100 µL/min
Conditions: column: Zorbax Extend-C18 2.1 x 50 mm; eluents: water / acetonitrile, 0.1% formic acid
Procedure, shortened: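 Pure standards were analyzed in mixtures of ~100 molecules using HPLC coupled to a quadrupole time-of-flight mass spectrometer, in both positive and negative ionization mode. Separation used a Zorbax Extend-C18 column (2.1 × 50 mm, 1.8 μm) at 100 μL/min, with water and acetonitrile each containing 0.1% formic acid. Dead and dwell volumes were 40 μL and 900 μL, and data were collected over 3 months. Retention time was read from computationally picked adduct peaks, each inspected manually.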

Row | SMILES | RP-LC retention time
1 | Cc1ccc(-c2noc(C3CCCN3C(=O)c3ccc4c(c3)OCO4)n2)cc1 (stereo not drawn) | 1000 s
2 | CNc1ccc2oc(C[C@H]3O[C@@]4(CC[C@H]3C)O[C@H]([C@H](C)C(=O)c3ccc[nH]3)[C@H](C)C[C@H]4C)nc2c1C(=O)O | 1030 s
3 | Cn1c(=O)sc2cc(S(=O)(=O)N3CCC(C(=O)NC4CCCCC4)CC3)ccc21 | 822 s
4 | O=c1c2cc(-c3ccccc3Cl)nn2cnn1Cc1nc(-c2ccc(F)cc2)no1 | 1140 s
5 | O=C(NC1CCc2ccccc21)C1CCN(c2ncccc2-c2nc(-c3cccc(F)c3)no2)CC1 (stereo not drawn) | 1160 s
6 | CCSc1nc2c(s1)c(=O)n(-c1ccccc1)c(=O)n2CC(=O)NCc1ccccc1 | 924 s
7 | COc1ccc(-c2nnc(COc3ccc(NC(=O)CSc4ccncc4)cc3)o2)cc1 | 650 s
8 | O=C(c1nccc2ccccc12)N1CCC(Nc2ncnc3c2CCC3)C1 (stereo not drawn) | 537 s
9 | Cn1c(N2CCCC(C(=O)NCc3ccc(Cl)cc3)C2)cc(=O)n(C)c1=O (stereo not drawn) | 710 s
10 | O=C(CSc1ccc(-n2ccnc2)nn1)Nc1ccc(OC(F)(F)F)cc1 | 618 s
11 | Cn1ncc2c(N3CCN(c4ccc(F)cc4)CC3)ncnc21 | 802 s
12 | O=C(CCc1csc(NC(=O)c2ccc[nH]c2=O)n1)NCC1CCCO1 (stereo not drawn) | 573 s
13 | CCNC(=O)c1cc(N2CCOCC2)nc2ccccc12 | 563 s
14 | O=C(Nc1ccc(F)cc1F)C1CCCN(S(=O)(=O)c2c[nH]c(C(=O)N3CCCC3)c2)C1 (stereo not drawn) | 792 s
15 | c1cc(Cc2nc(-c3ccc4c(c3)ncn4CCN3CCCCC3)no2)cs1 | 632 s
16 | CCc1nnc2ccc(NC(=O)Nc3ccc(C)cc3)cn12 | 710 s
17 | COc1cc(C(C[N+](=O)[O-])c2c(-c3ccccc3)[nH]c3ccccc23)cc(OC)c1OC (stereo not drawn) | 952 s
18 | O=C(c1ccc(OCC2CCCN(C(=O)c3ccoc3)C2)cc1)N1CCOCC1 (stereo not drawn) | 690 s
19 | CN(C)C(CNC(=O)C(=O)NCc1ccc2c(c1)OCO2)c1ccsc1 (stereo not drawn) | 556 s
20 | COc1ccc(NC(=O)N2CCc3c(c(-c4nnc(-c5ccc(F)cc5)o4)nn3C)C2)cc1OC | 766 s
21 | CNC(=O)[C@@H]1CN(C(=O)NCc2ccco2)C[C@H]1c1nc(C)no1 | 602 s
22 | CN(C)C(=O)c1ccc(-c2nnc3ccc(NC(=O)C4CCC4)cn23)cc1 | 664 s

Row | SMILES | RP-LC retention time
23 | COc1cccc(-n2c(N3CCCC(C(=O)NCc4ccc(C)o4)C3)nc3ccsc3c2=O)c1 (stereo not drawn) | 849 s
24 | Cc1nnc2ccc(S(=O)(=O)Nc3ccc(F)c(F)c3)cn12 | 692 s
25 | Cc1ccccc1Nc1c(-c2ccc(O)cc2)nc2c(C)cccn12 | 651 s
26 | COC(=O)c1ccccc1NC(=O)N1CCOc2ccc(C)cc21 | 1140 s
27 | Cc1cc(C)cc(C(=O)Nc2cnc(N3CCOCC3)nc2)c1 | 824 s
28 | COC(=O)c1ncn2c1C(=O)N(C1CC1)C(C)(C(=O)NCc1ccc(C)cc1)C2 (stereo not drawn) | 643 s
29 | O=C(CCc1ccccc1)N1CCN(C(=O)c2nnn3c2COC(c2ccccc2)C3)CC1 (stereo not drawn) | 891 s
30 | COc1ccccc1CNC(=O)C1CC(=O)N(c2n[nH]c3cccc(F)c23)C1 (stereo not drawn) | 711 s
31 | OCC1CN(c2ncccn2)CC12CCN(Cc1ccc3cc[nH]c3c1)CC2 (stereo not drawn) | 584 s
32 | COc1ccc(-c2nc3cnccn3c2Nc2ccc(C(C)C)cc2)cc1 | 1040 s
33 | CCN(CCN(C)C)c1nc(-c2ccc(OC)cc2)nc2ccccc12 | 562 s
34 | N#Cc1nnn2c1nc(N)c1c(Cl)cccc12 | 817 s
35 | CC(C)Cn1cc(S(=O)(=O)Nc2ccccc2Cl)c2cccnc21 | 1020 s
36 | O=C(c1csc(Nc2ccc(OC(F)F)cc2)n1)N1CCN(c2ncccn2)CC1 | 774 s
37 | Cc1ccc(NC(=O)Nc2ccc3nc(N4CCN(C)CC4)cc(C)c3c2)cc1Cl | 640 s
38 | CCCCNC(=O)C1CCCN(c2nnc3c(Cl)cccn23)C1 (stereo not drawn) | 594 s
39 | CCCN1C(=O)COc2ccc(-c3noc(CCc4c[nH]c5ccccc45)n3)cc21 | 1110 s
40 | Cc1cccn2cc(C(=O)NCc3cc(F)cc(F)c3)nc12 | 668 s
41 | CN(C)S(=O)(=O)N(CC(=O)Nc1cc(C(F)(F)F)ccc1Cl)c1ccccc1 | 1090 s
42 | COc1cc(NC(=O)N2CCC(CN3CCc4ccccc4C3)CC2)cc(OC)c1OC | 612 s
43 | CCN1C(=O)c2cccnc2Sc2cc(C(=O)N3CCCC3)ccc21 | 684 s
44 | O=C(CN1CCN(Cc2ccc(F)cc2)C(=O)C1=O)N1CCN(c2ccc(F)cc2)CC1 | 744 s

Row | SMILES | RP-LC retention time
45 | O=C(Cc1cn(Cc2ccc(Cl)cc2)c2ccccc12)NC1CC1 | 884 s
46 | CC1CCN(C(=O)c2cn(-c3cc(N4CCSCC4)ncn3)cn2)CC1 | 858 s
47 | Cc1cc(-c2nnc(-c3ccc(F)cc3)o2)c(C)n1CC(=O)NC1CCCCC1 | 979 s
48 | O=C(Nc1ccc2c(c1)OCO2)c1cn(-c2cc(N3CCCC3)ncn2)cn1 | 808 s
49 | O=C(c1cc(Cl)ccc1Cl)N1CCN(c2cc(-c3ccc(F)cc3)[nH]n2)CC1 | 897 s
50 | CCn1cc(C(=O)N2CCC3(CCC3O)CC2)cn1 (stereo not drawn) | 598 s
51 | N#Cc1cccc(NC(=O)C2CCN(S(=O)(=O)c3cc(C(=O)N4CCOCC4)cs3)CC2)c1 | 748 s
52 | Cc1cc(OCCCCOc2ccc(C#N)cc2)ccc1[N+](=O)[O-] | 1250 s
53 | COC(=O)Nc1ccc2[nH]cc(CCNC(C)=O)c2c1 | 673 s
54 | O=C(NCc1ccc(C(F)(F)F)cc1)C1CCN(c2nnc3ccc(Cl)cn23)CC1 | 718 s
55 | COCCc1noc(-c2cnc3nc(C)ccc3c2Nc2ccccc2)n1 | 677 s
56 | CC1=C(c2ccc(F)cc2)S(=O)(=O)N=C1N1CCCN(C(=O)c2cccc(F)c2)CC1 | 835 s
57 | COc1ccc(Cl)cc1NS(=O)(=O)c1c(C)sc(C)c1-c1cc(C(F)(F)F)on1 | 1220 s
58 | O=C(Nc1ccc(N2CCN(c3ccccc3)C2=O)nc1)c1cccc(Cl)c1 | 959 s
59 | Cc1ccc(NC(=O)c2ccccc2[N+](=O)[O-])c(C(=O)c2ccccc2)c1 | 955 s
60 | CSc1nnc(-c2nn(C)c3c2CN(C(=O)c2cccc(Cl)c2)CC3)n1C | 737 s
61 | O=c1c2cnc(N3CCOCC3)nc2ccn1CCc1c[nH]c2ccccc12 | 801 s
62 | Cc1ccc(NS(=O)(=O)c2c(C)nc3sc4cc(C)ccc4n3c2=O)c(C)c1 | 1230 s
63 | CN(C)CCNC(=O)c1cccc(Nc2c(-c3ccc(Cl)cc3)nc3cnccn23)c1 | 611 s
64 | CCCc1nc(-c2c(C)cc(C)nc2NC(=O)c2ccc(F)cc2F)no1 | 895 s
65 | O=C(NCc1ccco1)c1nn(-c2ccc(F)cc2)c2ccccc2c1=O | 872 s
66 | O=C(Nc1ccccc1C(F)(F)F)N1CCCC1c1nc(-c2ccc(F)cc2F)no1 (stereo not drawn) | 1030 s

Row | SMILES | RP-LC retention time
67 | CC(C)N1C(=O)c2cccnc2Sc2cc(NC(=O)C(C)(C)C)ccc21 | 828 s
68 | CC(=O)N1c2ccc(S(=O)(=O)NCCOc3ccc(F)cc3)cc2CC1C (stereo not drawn) | 798 s
69 | Cc1noc2ncnc(NCCN(C)Cc3ccccc3)c12 | 580 s
70 | O=c1c2cc(-c3ccc4c(c3)OCO4)nn2ccn1Cc1nc(-c2cccc(C(F)(F)F)c2)no1 | 1110 s
71 | Cc1cc2nn(CC(=O)N(C)c3ccccc3)c(=O)n2c(Nc2ccc(C)c(C)c2)n1 | 1100 s
72 | CS(=O)(=O)N1CCCC(C(=O)NCCC2=CCCCC2)CCNC(=O)CC1 (stereo not drawn) | 690 s
73 | Cc1c(-c2noc(C(=O)NCCN(C)C)n2)oc2c(C)cccc12 | 676 s
74 | O=C1CSc2ccc(S(=O)(=O)N3CCC(C(=O)NC4CCCC4)CC3)cc2N1 | 746 s
75 | Cc1cccc(-c2nc(-c3ccc(-n4ccnc4)nc3)no2)c1 | 814 s
76 | O=C(NCCc1csc(C2CCCN(C(=O)C3CCC3)C2)n1)C1CCC1 (stereo not drawn) | 719 s
77 | O=C(NC1CC1)c1ccc(OCC2CCN(C(=O)c3ccccc3C(F)(F)F)CC2)cc1 | 836 s
78 | COc1ccc(Cn2nccc2NC(=O)c2cc(=O)c3cc(Cl)ccc3o2)cc1 | 866 s
79 | O=C(Nc1cccc(N2CCCCC2=O)c1)c1ccc(F)c(F)c1 | 705 s
80 | Cc1ccsc1C(=O)NCC1CCCCC(=O)N1 (stereo not drawn) | 640 s
81 | Cc1cccc(NC(=O)N2CCN(c3cc(C)nc(N4CCCC4)n3)CC2)c1 | 680 s
82 | CC(=O)Nc1ccc2nc(NC(=O)c3cccc(C(F)(F)F)c3)sc2c1 | 784 s
83 | COc1ccc(CN(Cc2cc(=O)n3ccccc3n2)CC(C)C)cc1OC | 615 s
84 | Cc1nnc2ccc(N3CCC(C)CC3)nn12 | 1000 s
85 | C=CCN1C(=O)COc2ccc(-c3csc(NC(=O)c4ccc(Cl)cc4)n3)cc21 | 1100 s
86 | Cc1c(Cl)cccc1NC(=O)Cn1nc(C(=O)N2CCCCC2)c2ccccc21 | 917 s
87 | O=C(Nc1cccn2ncnc12)c1cccs1 | 690 s
88 | CC(Oc1ccccc1F)C(=O)NCCn1nc(-n2cccn2)ccc1=O (stereo not drawn) | 660 s
